From patent US5208223A, “Phosphocholine derivative inhibitors of phospholipase A2” (American Cyanamid Company, priority 1992, dated 1993)
Where a name gives a salt, the structure may show the parent alone. Read-outs that look alike come from different tables or passages of the source.

Assays:
porcine pancreatic PLA2 [1] = biological target: T1, porcine pancreatic PLA2 (Sus scrofa, UniProt P00592); assay: PLA2 assay: in vitro porcine pancreatic phospholipase A2, preincubation of drug+enzyme, substrate 2 nM; assay type: biochemical; conditions: preincubation, subs. con. 2; for IC50: read-out: IC50 (converted)
T1 construct: purchased Sigma
Description: (§1) Phospholipase A2 activity was measured by a radiochemical assay in which labeled synthetic phosphatidylcholine substrate is converted by porcine pancreatic PLA2 to free radiolabeled arachidonate and lyso PC. Radiolabeled arachidonate is extracted from the reaction mixture and separated from unreacted substrate by column chromatography or TLC. Radioactivity (cpm) in samples is quantitated by liquid scintillation counting. Specific details are as follows:
(§2) Labeled substrate(1-stearyl-2-^3 H-arachidonylphosphatidylcholine; Amersham, sp. act. 84 (uCi/mmole, 0.025 to 0.2 uCi/assay tube and unlabeled substrates (Avanti), in sufficient quantity to give 20,000 cpm to 50,000 cpm and 10 μM to 1,000 μM final concentration/assay tube are dried under a stream of nitrogen. The PLA2 and mPLA2 assays utilized a […] substrate concentration. The mHPLA2 and HPLA2 assays (vida infra) utilized a 10 μM substrate concentration and the SmPLA2 assay utilized a substrate concentration ranging from 100 to 1000 μm. The substrate is then redissolved in 0.1M tris-HCl buffer, pH 9.0 containing 10 mM CaCl2 and 10 mM Na taurocholate detergent. The mixture is sonicated in a Kontes Sonifier to yield a homogeneous dispersion. The "mixed" micellar substrate is clear. An aliquot is reserved for a cpm count (total substrate). The total reaction volume is 500 μL; siliconized glassware or plasticware is used throughout. Enzyme (Sigma, sp. act.>690 U/mg protein and preferably 900 U/mg protein) is diluted 1:750 or 1:1000 in 0.1M tris-HCl buffer, pH 9.0 (without Ca^++ and detergent). Enzyme dilution depends on substrate concentration and required enzyme concentration.
(§3) The substrate in buffer is kept on ice until the reaction is started. The reaction is started by adding 10 μL of diluted enzyme solution to 490 μL of micellar substrate solution. Samples are incubated in a 37° C. water bath for 15 minutes with gentle mixing. The reaction is terminated by the addition of 100 μL of 1M fresh trichloroacetic acid (TCA) solution and chilling the tubes on ice for 30 minutes.
(§4) Samples (600 μL) are extracted with 3 ml CHCl3 /MeOH (2:1) for thin layer chromatography or in hexane/ether (9:1) for column chromatography. The phases are separated by gentle centrifugation at 700 rpm×5'. The organic phase is recovered.
(§5) Labeled arachidonate extracted with CHCl3 /MeOH is separated on silica gel G TLC plates (Analtech). Twenty μL of a 2 mg/ml internal standard solution of arachidonic acid (Sigma) is combined with 2-3 ml of the organic phase. The entire mixture is dried under nitrogen and redissolved in 50 μL of CHCl3 /MeOH (2:1). A 20 μL sample is counted in 10 ml of Beckman Redi-solv HP and spotted on silica gel G plates. The solvent system used to develop the plate is CHCl3 /MeOH/13.5N NH3 /H2 O (70:30:4:1). Plates are developed in a glass chamber for 1-11/2 hours, air dried, and the spots visualized in an iodine vapor chamber. Standards of phosphatidylcholine, lyso PC, and arachidonic acid (Sigma) are made as 2 mg/ml stocks in CHCl3 /MeOH (2:1) and spotted on plates. Spots corresponding to arachidonate and phospholipid are scraped and counted in 10 ml Beckman Redi-Solv HP scintillation fluid.
(§6) Samples are extracted with hexane/ether and the upper organic phase recovered. An aliquot is applied to a Silicar CC4 (Malincrodt) column. Columns are prepared using 1 ml of a 1:1 slurry of silicar CC4 in hexane/ether in a Pasteur pipet (approx. 2 cm height). Columns are rinsed with 500 μL of hexane/ether before adding the sample (300-600 μL) to the column. Columns are eluted with a total of 6 ml of hexane/ether. The 6 ml sample is counted in 10 ml of Beckman Redi-Solv HP scintillation fluid.
or the phospholipase A2 assay, compounds are prepared as 1 mg/ml stock solutions in MeOH and diluted appropriately in PBS.

porcine pancreatic PLA2 [2] = biological target: T1, porcine pancreatic PLA2; assay: MHPLA2 assay: in vitro porcine pancreatic phospholipase A2, mixed micelle design, [s]=10 μm; assay type: biochemical; conditions: subs. con. 10
Description: as §1, §2, §3, §4, §5, §6
or the phospholipase A2 assay, compounds are prepared as 1 mg/ml stock solutions in MeOH and diluted appropriately in PBS. […]

[3] = dose 10 μ/ml, read-out: % Inh. Avg.

T1 sequence (P00592 23-146): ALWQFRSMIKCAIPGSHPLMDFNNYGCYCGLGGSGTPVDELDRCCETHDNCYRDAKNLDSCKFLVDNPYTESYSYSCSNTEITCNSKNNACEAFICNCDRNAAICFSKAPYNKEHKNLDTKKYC

SMILES | IC50 (porcine pancreatic PLA2 [1]) [µM] | inhibition at 10 µg/mL (porcine pancreatic PLA2 [1]; [3]) [%] | inhibition at 10 µg/mL (porcine pancreatic PLA2 [1]; dose 10 μ/ml, read-out: % Inh.) [%] | inhibition at 20 µg/mL (porcine pancreatic PLA2 [1]; dose 20 μ/ml, read-out: % Inh.) [%] | other results
CCCCCCCCCCCCCCCCOC[C@@H](COP(=O)([O-])OCC[N+](C)(C)C)OP(=O)(OC)OCCCCCCCCCCCCCCCC (single isomer, unassigned) | 4.12 | – | – | – | inhibition at 25 µg/mL (porcine pancreatic PLA2 [1]; dose 25 μ/ml, read-out: % Inh.): 91%
CCCCCCCCCCCCCCCCOP(=O)(O)OCCOP(=O)([O-])OCC[N+](C)(C)C [3,9-Dihydroxy-N,N,N-trimethyl-3,5,8,10-tetraoxa-4,9-diphosphahexacosan-1-aminium, hydroxide, 4-(inner salt) 4,9-dioxide] | – | 20 | – | – | –
CCCCCCCCCCCCCCCCOCC(COP(=O)([O-])OCC[N+](C)(C)C)CC(C)(O)CCCCCCCCCCCCCCCC (stereo not drawn) [4-Hydroxy-7-(2-hydroxy-2-methyloctadecyl)-N,N,N-trimethyl-3,5,9-trioxa-4-phosphapentacosan-1-aminium, hydroxide, inner salt, 4-oxide] | 7.89 | 64 | 65 | 66 | –
CCCCCCCCCCCCCCCCOCC(COP(=O)([O-])OCC[N+](C)(C)C)CC1(CCCCCCCCCCCCCCCC)CO1 (stereo not drawn) [7-[(2-Hexadecyloxiranyl)methyl]-4-hydroxy-N,N,N-trimethyl-3,5,9-trioxa-4-phosphapentacosan-1-aminium, hydroxide, inner salt, 4-oxide] | 2.41 | – | 78 | 75 | –
CCCCCCCCCCCCCCCCOCC(COP(=O)([O-])OCC[N+](C)(C)C)CC(=O)CCCCCCCCCCCCCCCC (stereo not drawn) [4-Hydroxy-N,N,N-trimethyl-7-(2-oxooctadecyl)-3,5,9-trioxa-4-phosphapentacosan-1-aminium, hydroxide inner salt, 4 oxide] | 7.92 | 60 | 59 | 62 | –
CCCCCCCCCCCCCCCCOP(=O)(OC)OCCOP(=O)(O)OCCBr (stereo not drawn) [2-[[(2-Bromoethoxy)hydroxyphosphinyl]oxy]ethyl hexadecyl phosphoric acid, methyl ester] | – | 21 | – | – | –
CCCCCCCCCCCCCCCCOCC(COP(=O)([O-])OCC[N+](C)(C)C)OP(=O)(OC)OCCCCC (single isomer, unassigned) [3,5,8,10-Tetraoxa-4,9-diphosphapentadecan-1-aminium, 7-[(hexadecyloxy)methyl]-4-hydroxy-9-methoxy-N,N,N-trimethyl-, hydroxide, 4-(inner salt), 4,9-dioxide, less polar isomer] | 8.05 | – | 76 | 83 | –
CCCCCCCCCCCCCCCCOC[C@H](COP(=O)([O-])OCC[N+](C)(C)C)OP(=O)(OC)OCCCCCCCCCCCCCCCC (single isomer, unassigned) | 17.1 | 22 | – | – | inhibition at 20 µg/mL (porcine pancreatic PLA2 [1]; dose 20 μ/ml, read-out: % Inh. Avg.): 34%
CCCCCCCCCCCCCCCCOCC(COP(=O)([O-])OCC[N+](C)(C)C)OP(=O)(OC)OCCCCCCCCCCCCCCCC (stereo not drawn) [3,5,8,10-Tetraoxa-4,9-diphosphahexacosan-1-aminium, 7-[(hexa] [3,5,8,10-Tetraoxa-4,9-diphosphahexacosan-1-aminium, 7-[(hexadecyloxy)methyl]-4-hydroxy-9-methoxy-N,N,N-trimethyl-, hydroxide, inner salt, 4,9-dioxide] | – | – | – | – | % Inh. Avg. (porcine pancreatic PLA2 [1]; dose 10 μ/ml): 30%; % Inh. Avg. (porcine pancreatic PLA2 [1]; dose 25 μ/ml): 75%; % Inh. Avg. (porcine pancreatic PLA2 [1]; dose 50 μ/ml): 77%
CCCCCCCCCCCCCCCCOC[C@H](COP(=O)([O-])OCC[N+](C)(C)C)OP(=O)(OC)OCCCCCCCCCCCCCCCC (single isomer, unassigned) [3,5,8,10-Tetraoxa-4,9-diphosphahexacosan-1-aminium, 7-[(hexa] | – | – | – | – | % Inh. Avg. (porcine pancreatic PLA2 [1]; dose 20 μ/ml): 28%
CCCCCCCCCCCCCCCCOCC(COP(=O)([O-])OCC[N+](C)(C)C)OP(=O)(O)OCCCCCCCCCCCCCCCC (stereo not drawn) [3,5,8,10-Tetraoxa-4,9-diphosphahexacosan-1-aminium, 7-[(hexa] [3,5,8,10-Tetraoxa-4,9-diphosphahexacosan-1-aminium, 7-[(hexadecyloxy)methyl]-4,9-dihydroxy-N,N,N-trimethyl-, hydroxide, 4-inner salt), 4,9-dioxide] | – | – | – | – | % Inh. (porcine pancreatic PLA2 [2]; dose 10 μ/ml): STIM; % Inh. (porcine pancreatic PLA2 [2]; dose 25 μ/ml): STIM
CCCCCCCCCCCCCCCCOCC(COP(=O)([O-])OCC[N+](C)(C)C)CC(O)CCCCCCCCCCCCCCCC (single isomer, unassigned) [4-Hydroxy-7-(2-hydroxyoctadecyl)-N,N,N-trimethyl-3,5,9-trioxa-4-phosphapentacosan-1-aminium, hydroxide, inner salt, 4-oxide isomer] | 2.32 | – | – | – | –
C=C(CCCCCCCCCCCCCCCC)CC(COCCCCCCCCCCCCCCCC)COP(=O)([O-])OCC[N+](C)(C)C (stereo not drawn) [4-Hydroxy-N,N,N-trimethyl-7-(2-methyleneoctadecyl)-3,5,9-trioxa-4-phosphaoentacosan-1-aminium, hydroxide, inner salt, 4-oxide] | 5.2 | 62 | 59 | 52 | –
CCCCCCCCCCCCCCCCCCOP(=O)(O)OCCOP(=O)([O-])OCC[N+](C)(C)C [4,9-Dihydroxy-N,N,N-trimethyl-3,5,8,10-tetraoxa-4,9-diphosphaoctacosan-1-aminium, hydroxide, 4-(inner salt), 4,9-dioxide] | – | 40 | – | – | –
CCCCCCCCCCCCCCCCOC[C@@H](COP(=O)([O-])OCC[N+](C)(C)C)OP(=O)(OC)OCCCCCCCCCCCCCCCC (single isomer, unassigned) [3,5,8,10-Tetraoxa-4,9-diphosphahexacosan-1-aminium, 7-[(hexa] | – | – | – | – | % Inh. (porcine pancreatic PLA2 [2]; dose 25 μ/ml): 0%
CCCCCCCCCCCCCCCCOCC(COP(=O)([O-])OCC[N+](C)(C)C)CC(O)CCCCCCCCCCCCCCCC (single isomer, unassigned) [4-Hydroxy-7-(2-hydroxyoctadecyl)-N,N,N-trimethyl-3,5,9-trioxa-4-phosphapentacosan-1-aminium, hydroxide, inner salt, 4-oxide] | 2.18 | – | 80 | 80 | –
CCCCCCCCCCCCCCCCOCC(COP(=O)([O-])OCC[N+](C)(C)C)CC(O)CCCCCCCCCCCCCCCC (single isomer, unassigned) [4-Hydroxy-7-(2-hydroxyoctadecyl)-N,N,N-trimethyl-3,5,9-triox] [4-Hydroxy-7-(2-hydroxyoctadecyl)-N,N,N-trimethyl-3,5,9-trioxa-4-phosphapentacosan-1-aminium, hydroxide, inner salt, 4-oxide isomer] | – | – | – | – | % Inh. (porcine pancreatic PLA2 [1]; dose 10 μ/ml): 80%
CCCCCCCCCCCCCCCCOCC(CC=O)COP(=O)([O-])OCC[N+](C)(C)C (stereo not drawn) [4-Hydroxy-N,N,N-trimethyl-7-(2-oxoethyl)-3,5,9-trioxa-4-phosphapentacosan-1-aminium, hydroxide, inner salt, 4-oxide] | 26 | 43 | 47 | 62 | –
